Experimental data as given in US20250101011A1, “PEPTIDYL NITRILE COMPOUND AND USE THEREOF” (SHANGHAI YIDIAN PHARMACEUTICAL TECHNOLOGY DEVELOPMENT CO., …, priority 2022, published 2025).

Tests used:
DPP1 = DPP1 (Homo sapiens (Human), UniProt P53634); test: DPP1 activity inhibition test on U937 cells; assay type: cell-based; settings: substrate h-Gly-phe-AFC; for inhibition at 0.005 µM: U-937, 5 nM compound; for inhibition at 0.05 µM: U-937, 50 nM compound; for IC50: intracellular enzyme activity
Protocol: After incubation at 37° C. for 1 h, add h-Gly-phe-AFC (10 μL) to each well and start reaction.

rhCathepsin C/DPP1 = rhCathepsin C/DPP1 (Homo sapiens (Human), UniProt P53634); test: Test for inhibition of DPP1 enzyme activity; assay type: biochemical; settings: recombinant human cathepsin C/DPP1; substrate Gly-Arg-AMC
Protocol: Recombinant human cathepsin, rhCathepsin C/DPP1, purchased from R&D systems
Gly-Arg-AMC (hydrOCHloride), purchased from Cayman chemical
• 1) Preparation and handling of compounds: Accurately weigh the compound and dissolve it in […] of DMSO to prepare a […] of the bulk, which is further diluted as required. • 2) Screening test: Dilute recombinant human cathepsin rhCathepsin C/DPP1 and recombinant human cathepsin rhCathepsin L with an activating buffer solution, and incubate at 37° C. for 60 min. Add 4 μL of test compound to the white well of the 384-well plate. Add 4 μL of the enzyme mixture after incubation to the white wells. Block the 384-well plate and allow to stand at room temperature for 30 min, and add 8 μL of 2-fold diluted Gly-Arg-AMC (hydrochloride). Block the 384-well plate and allow to stand at room temperature for 2 h. Prepare 4× stop solution and add 4 μL stop solution to white wells. Read fluorescence data on the fluorescence meter Victor Nivo35. • 3) Data analysis:
[…] using Prism Graphpad 8.0.

rhCathepsin C/DPP1, sequence (P53634 25-134): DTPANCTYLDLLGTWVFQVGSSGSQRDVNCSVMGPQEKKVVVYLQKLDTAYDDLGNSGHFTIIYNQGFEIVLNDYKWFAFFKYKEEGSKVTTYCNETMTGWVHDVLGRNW
rhCathepsin C/DPP1, sequence (P53634 231-394): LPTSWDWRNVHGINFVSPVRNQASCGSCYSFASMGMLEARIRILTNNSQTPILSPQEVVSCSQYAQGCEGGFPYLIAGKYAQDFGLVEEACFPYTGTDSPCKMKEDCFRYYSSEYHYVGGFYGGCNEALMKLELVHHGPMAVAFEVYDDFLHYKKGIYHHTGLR
rhCathepsin C/DPP1, sequence (P53634 395-463): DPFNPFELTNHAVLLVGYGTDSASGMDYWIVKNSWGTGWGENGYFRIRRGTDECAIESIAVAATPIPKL
DPP1, sequence (P53634 25-463): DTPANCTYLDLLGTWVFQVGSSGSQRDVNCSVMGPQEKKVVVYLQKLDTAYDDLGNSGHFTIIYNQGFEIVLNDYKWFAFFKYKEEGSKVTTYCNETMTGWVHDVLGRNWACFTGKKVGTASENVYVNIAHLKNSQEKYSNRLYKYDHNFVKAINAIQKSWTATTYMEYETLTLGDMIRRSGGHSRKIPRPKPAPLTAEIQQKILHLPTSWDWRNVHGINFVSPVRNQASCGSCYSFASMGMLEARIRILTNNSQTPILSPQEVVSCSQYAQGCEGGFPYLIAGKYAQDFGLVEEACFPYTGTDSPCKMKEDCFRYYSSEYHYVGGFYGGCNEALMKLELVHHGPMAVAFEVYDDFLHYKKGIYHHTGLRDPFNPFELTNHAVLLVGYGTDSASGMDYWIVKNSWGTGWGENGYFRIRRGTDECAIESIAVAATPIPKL

SMILES	inhibition at 0.005 µM (DPP1) [%]	inhibition at 0.05 µM (DPP1) [%]	IC50 (DPP1) [nM]	IC50 (rhCathepsin C/DPP1) [nM]
N#C[C@H](Cc1ccc(-c2ccc3c(c2)C2(CCN(C4COC4)CC2)OC3)cc1)NC(=O)[C@@H]1CNCCCO1 [Compound D26]	30 to 75	75 to 100	16	3.1
N#C[C@H](Cc1ccc(-c2ccc3c(c2)COC3=O)cc1)NC(=O)[C@@H]1CNCCCO1 [Compound D44]	30 to 75	75 to 100	14	5.2
N#C[C@H](Cc1ccc(-c2ccc3oc(=O)n(CF)c3c2)cc1)NC(=O)[C@@H]1CNCCCO1 [Compound D02]	30 to 75	75 to 100	5.7	4.1
C[C@@H]1OC(=O)c2ccc(-c3ccc(C[C@@H](C#N)NC(=O)[C@@H]4CNCCCO4)c(F)c3)cc21 [Compound D74]	30 to 75	75 to 100	8	2.9
N#C[C@H](Cc1ccc(-c2ccc3c(c2)CCC3=O)cc1)NC(=O)[C@@H]1CNCCCO1 [Compound D09]	30 to 75	75 to 100	10	5.4
CN1CC(n2c(=O)sc3ccc(-c4ccc(C[C@@H](C#N)NC(=O)[C@@H]5CNCCCO5)c(F)c4)cc32)C1 [Compound D70]	30 to 75	75 to 100	13.2	0.58
N#C[C@H](Cc1ccc(-c2ccc3c(c2)C2(CCN(C4COC4)CC2)OC3=O)cc1F)NC(=O)[C@@H]1CNCCCO1 [Compound D92]	30 to 75	75 to 100	5.9	0.32
N#C[C@H](Cc1ccc(-c2ccc3c(c2)COC3=O)cc1F)NC(=O)[C@@H]1CNCCCO1 [Compound D61]	30 to 75	75 to 100	5.3	2.5
C[C@H]1OC(=O)c2ccc(-c3ccc(C[C@@H](C#N)NC(=O)[C@@H]4CNC[C@@H](F)CO4)c(F)c3)cc21 [Compound D123]	–	–	15	1.4
CN1CC2(C1)OCc1ccc(-c3ccc(C[C@@H](C#N)NC(=O)[C@@H]4CNCCCO4)cc3)cc12 [Compound D20]	30 to 75	75 to 100	35	3.6

Continued by falling IC50 (DPP1), values first:

inhibition at 0.005 µM (DPP1) [%]	inhibition at 0.05 µM (DPP1) [%]	IC50 (DPP1) [nM]	IC50 (rhCathepsin C/DPP1) [nM]	SMILES
30 to 75	75 to 100	5.2	3.9	N#C[C@H](Cc1ccc(-c2ccc3oc(=O)n(C(F)F)c3c2)cc1)NC(=O)[C@@H]1CNCCCO1 [Compound D04]
30 to 75	75 to 100	4.6	3.7	N#C[C@H](Cc1ccc(-c2ccc3c(c2)CCC3=O)cc1F)NC(=O)[C@@H]1CNCCCO1 [Compound D60]
–	–	4.6	4.2	[2H]C([2H])([2H])[C@H]1OC(=O)c2ccc(-c3ccc(C[C@@H](C#N)NC(=O)[C@@H]4CNCCCO4)c(F)c3)cc21 [Compound D127]
–	–	4.3	1.36	N#C[C@H](Cc1ccc(-c2ccc3sc(=O)n(C4COC4)c3c2)cc1F)NC(=O)[C@@H]1CNCCCO1 [Compound D106]
30 to 75	75 to 100	3.8	2.5	CC1OC(=O)c2ccc(-c3ccc(C[C@@H](C#N)NC(=O)[C@@H]4CNCCCO4)c(F)c3)cc21 (stereo partly drawn) [Compound D73]
30 to 75	75 to 100	3.8	2.3	C[C@H]1OC(=O)c2ccc(-c3ccc(C[C@@H](C#N)NC(=O)[C@@H]4CNCCCO4)c(F)c3)cc21 [Compound D75]
–	–	3.42	2.3	CCN1CCC(=O)c2ccc(-c3ccc(C[C@@H](C#N)NC(=O)[C@@H]4CNCCCO4)c(F)c3)cc21 [Compound D120]
30 to 75	75 to 100	3	0.45	Cn1c(=O)oc2ccc(-c3ccc(C[C@@H](C#N)NC(=O)[C@@H]4CNCC5(CC5)CO4)c(F)c3)cc21 [Compound D46]
–	–	2.1	1.6	CN1CCC(=O)c2ccc(-c3ccc(C[C@@H](C#N)NC(=O)[C@@H]4CNCCCO4)c(F)c3)cc21 [Compound D118]
